What all share (format): physicochemical
The nature of series [1]: Water solubility of the two crystal forms. Particulars: for solubility: water, thermodynamic from solid.
A short description of series [2]: Chemical stability of the crystal forms on storage (HPLC). Particulars: non-micronized, 40° C./75% RH (monohydrate also 40° C. without humidity control), three months. The procedure: (§1) Non-micronized samples of monohydrate and anhydrate were stored at 40° C./75% RH for three months. The monohydrate was also stored at 40° C. without humidity control. During the three months, the samples were checked after two weeks, one month, two months, and three months.

The nature of series [3]: Stability studies of the two crystal forms (crystal form by XRPD/TGA).
Experiment in series [4]: as above
Particulars: for Long term stability of crystal form (XRPD and TGA): non-micronized, three months. The procedure: Samples of monohydrate were stored at room temperature, 56° C., and 70° C. for one week. At room temperature, humidity was maintained at 0% RH. Humidity was not controlled for the higher temperatures.
The samples were analyzed by XRPD and TGA.
as §1

Series [5] can be described thus: Dynamic vapor sorption (hygroscopicity) of the two crystal forms. Particulars: for DVS weight gain: 0–90% RH. The text has this:
Dynamic Vapor Sorption (Allentown, Pa.) was used to measure the hygroscopicity of the anhydrate and monohydrate of the invention (see FIGS. 6 and 7). The step conditions were three hours each at 0%, 30%, 52.5%, 75% and 90% RH, two full cycles.

This is an account of results in patent publication US20070207201A1, “Liquid and Semi-Solid Pharmaceutical Formulations and Processes” (Wyeth, priority 2006, published 2007).

By solubility is commonly meant how much of the substance goes into solution per volume.

The structures appear in SMILES notation.

On to `C=Cc1cc(O)cc2nc(-c3ccc(O)c(F)c3)oc12` [Anhydrate, 2-(3-fluoro-4-hydroxyphenyl)-7-vinyl-1,3-benzoxazol-5-ol], for which the solubility was 10 µg/mL in series [1] (pH 7.29, water) and 12.8 µg/mL in series [1] (pH 7.7, water, pH 7.70). Moreover, the “Long term chemical stability (HPLC)” value in series [2] was “chemically stable”. The “Long term stability of crystal form (XRPD)” value in series [3] (micronized, 25° C./60% RH, three months) is recorded as “did not transform to the monohydrate”; in series [3] (micronized, 40° C./75% RH, after one month) it was “partially transform to the monohydrate”; in series [3] (non-micronized, 40° C./75% RH, separate study), “did not show any obvious transformation”. Further, the “Long term stability of crystal form (XRPD and TGA)” value in series [4] (40° C./75% RH) was “did not transform”. The “Hygroscopicity (from DVS data)” value in series [5] is listed as “largely non-hygroscopic”. In addition, the DVS weight gain in series [5] is 0.2% gain (0–90%.

Consider `C=Cc1cc(O)cc2nc(-c3ccc(O)c(F)c3)oc12` [Monohydrate, 2-(3-fluoro-4-hydroxyphenyl)-7-vinyl-1,3-benzoxazol-5-ol], for which the “Water solubility compared between the two forms” value in series [1] is given as “significantly lower solubility than the anhydrate”. The solubility in series [1] (pH 7.11, water) was 2.34 µg/mL; in series [1] (pH 7.51, water) it was 2.21 µg/mL. Further, the “Long term chemical stability (HPLC)” value in series [2] is “chemically stable”. For the same molecule, the entries for the “Short term stability of crystal form (XRPD)” value in series [3] (70° C. for one hour), in series [3] (90° C. after one half hour) and in series [3] (90° C. after one hour) were “stable”, “partially dehydrated” and “completely dehydrated”, respectively. Moreover, the “Medium term stability of crystal form (XRPD and TGA)” value is recorded as “no obvious dehydration” in series [4] (56° C., humidity not controlled, one week); “no obvious hydration” in series [4] (70° C., humidity not controlled, after 1 day); “partially dehydrated” in series [4] (70° C., humidity not controlled, after 4 days); “mostly dehydrated” in series [4] (70° C., humidity not controlled, after 7 days); “no obvious dehydration” in series [4] (room temperature, 0% RH, one week). In addition, the “Long term stability of crystal form (XRPD and TGA)” value in series [4] (40° C. without humidity control) and in series [4] (40° C./75% RH) was “did not transform” throughout. In addition, the “Hygroscopicity (from DVS data)” value in series [5] is on record as “largely non-hygroscopic”. Besides, the DVS weight gain in series [5] was 0.1% gain (0–90% RH).
